From patent US20250026748A1, “N-(5-SUBSTITUTED-[(1,3,4-THIADIAZOLYL) OR (THIAZOLYL)])(SUBSTITUTED)CARBOXAMIDE COMPOUNDS AND USE THEREOF FOR INHIBITING HUMAN POLYMERASE THETA” (Repare Therapeutics Inc., priority 2021, published 2025)

Target: PolQ ATPase enzyme (1-894) (Homo sapiens (Human), UniProt O75417)
Test: Polθ ATPase enzymatic assay (0.5 nM enzyme concentration), ADP-Glo
Format: biochemical
Settings: average IC50; 0.5 nM PolQ ATPase enzyme (1-894)
Procedure, shortened: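 Enzyme (0.5 nM) pre-incubated 15 min at rt with 10-point inhibitor series in 50 mM Tris pH 7.5, 10% glycerol, 5 mM DTT, 10 mM MgCl2, 0.1 mg/ml BSA; reaction started with 20 nM fork DNA and 100 μM ATP, run 180 min at rt. ADP-Glo luminescence; IC50 from 4-parameter variable-slope fit.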

Chain of PolQ ATPase enzyme (1-894) (O75417 1-894): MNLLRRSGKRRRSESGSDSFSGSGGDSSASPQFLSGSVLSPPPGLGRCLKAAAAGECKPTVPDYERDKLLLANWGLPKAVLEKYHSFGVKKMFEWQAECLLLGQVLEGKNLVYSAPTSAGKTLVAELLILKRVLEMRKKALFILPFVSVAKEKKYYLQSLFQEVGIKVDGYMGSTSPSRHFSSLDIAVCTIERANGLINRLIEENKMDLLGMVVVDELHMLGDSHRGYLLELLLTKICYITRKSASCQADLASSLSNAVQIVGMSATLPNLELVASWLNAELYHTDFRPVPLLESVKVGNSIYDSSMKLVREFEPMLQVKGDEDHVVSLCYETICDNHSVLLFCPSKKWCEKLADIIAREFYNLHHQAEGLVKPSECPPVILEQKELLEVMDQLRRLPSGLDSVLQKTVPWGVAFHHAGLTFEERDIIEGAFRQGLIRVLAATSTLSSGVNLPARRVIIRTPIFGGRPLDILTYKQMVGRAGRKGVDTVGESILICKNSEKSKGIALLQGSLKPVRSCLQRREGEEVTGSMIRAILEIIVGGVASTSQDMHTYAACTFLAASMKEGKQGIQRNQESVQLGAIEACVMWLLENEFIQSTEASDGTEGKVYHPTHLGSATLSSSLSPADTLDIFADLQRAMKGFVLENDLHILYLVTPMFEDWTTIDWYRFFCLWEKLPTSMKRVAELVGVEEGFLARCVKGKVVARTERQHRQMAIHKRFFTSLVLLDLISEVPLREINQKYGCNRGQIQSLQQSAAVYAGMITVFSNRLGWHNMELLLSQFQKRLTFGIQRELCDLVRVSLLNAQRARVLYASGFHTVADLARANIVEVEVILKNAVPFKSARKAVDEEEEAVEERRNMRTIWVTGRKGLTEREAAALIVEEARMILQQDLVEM

Structure (SMILES) | IC50
COc1cnc(C(F)F)cc1-c1cc(N2CCCN(C)CC2=O)ncc1C(=O)Nc1nnc(C#CC2CC2)s1 [Compound 441] | 0.43 nM
COc1cnc(C(F)F)cc1-c1cc(-c2cn(C)cn2)ncc1C(=O)Nc1nnc(C#CC2CC2)s1 [Compound 187] | 0.91 nM
C#CC1CC1c1nnc(NC(=O)c2ccc(N3CCOCC3=O)cc2-c2cc(C(F)F)ncc2OC)s1 (stereo not shown) [Compound 396] | 10 nM
COc1cnc(C(F)F)cc1-c1cc(N2CC3(COC3)C2)ncc1C(=O)Nc1nnc(C#CC2CC2)s1 [Compound 162] | 13 nM
COc1ccc(C(F)F)cc1-c1cc(C#N)ncc1C(=O)Nc1nnc(C#CC2CC2)s1 [Compound 321] | 0.41 nM
COc1cnc(C(F)F)cc1-c1cc(C#CC2(O)CCS(=O)(=O)CC2)ccc1C(=O)Nc1nnc(C#CC2CC2)s1 [Compound 264] | < 0.25 nM
COc1cnc(C(F)F)cc1-c1cc(N2CCOCC2)ncc1C(=O)Nc1nnc(C#CC2CC2)s1 [Compound 235] | 19 nM
COc1cnc(Cl)cc1-c1cn2ncnc2cc1C(=O)Nc1nnc(C#CC2CC2)s1 [Compound 96] | 2.6 nM
COc1cnc(C(F)F)cc1-c1cc(N(C)C#N)ccc1C(=O)Nc1nnc(C#CC2CC2)s1 [Compound 203] | 2.9 nM
COc1ccc(C(F)F)cc1-c1cnccc1C(=O)Nc1nnc(C#CC2CC2)s1 [Compound 56] | < 0.25 nM
COc1cnc(Cl)cc1-c1cn(C)c(=O)cc1C(=O)Nc1nnc(C#CC2CC2)s1 [Compound 32, 2′-chloro-N-(5-(cyclopropylethynyl)-1,3,4-thiadiazol-2-yl)-5′-methoxy-1-methyl-6-oxo-1,6-dihydro-[3,4′-bipyridine]-4-carboxamide] | 0.66 nM
COc1cnc(C(F)F)cc1-c1cc(C#CCN2CCOCC2)ccc1C(=O)Nc1nnc(C#CC2CC2)s1 [Compound 219] | < 0.25 nM
COc1cnc(C(F)F)cc1-c1cc(-c2nnc(C)o2)ccc1C(=O)Nc1nnc(C#Cc2cc(C)[nH]n2)s1 [Compound 153] | < 0.25 nM
COc1cnc(C(F)F)cc1-c1cc(OCC2CC2)ncc1C(=O)Nc1nnc(C#CC2CC2)s1 [Compound 180] | 4.6 nM
COc1cnc(C(F)F)cc1-c1cc(-n2cc(C)ccc2=O)ncc1C(=O)Nc1nnc(C#CC2CC2)s1 [Compound 440] | < 0.25 nM
COc1cnc(C(F)F)cc1-c1cc(N2CCCC(C)(C)C2=O)ncc1C(=O)Nc1nnc(C#CC2CC2)s1 [Compound 442] | < 0.25 nM
COc1cnc(C(F)F)cc1-c1cc(N2C(=O)COCC2C)ncc1C(=O)Nc1nnc(C#CC2CC2)s1 (stereo not shown) [Compound 400] | 0.46 nM
COc1cnc(C(F)F)cc1-c1cc(-n2ccncc2=O)ccc1C(=O)Nc1nnc(C#CC2CC2)s1 [Compound 163] | < 0.25 nM
COc1cnc(C(F)F)cc1-c1cc(CC(=O)N2CC(F)(F)C2)ccc1C(=O)Nc1nnc(C#CC2CC2)s1 [Compound 195] | < 0.25 nM
COc1ccc(C(F)(F)F)cc1-c1cn(CC(=O)N(C)C)c(=O)cc1C(=O)Nc1nnc(C#CC2CC2)s1 [Compound 75] | < 0.25 nM
COc1cnc(C(F)F)cc1-c1cn2cc(C(=O)N(C)C)nc2cc1C(=O)Nc1nnc(C#CC2CC2)s1 [Compound 315] | 4.5 nM
COc1cnc(C(F)F)cc1-c1cc(C#CC2(C)CCCO2)ncc1C(=O)Nc1nnc(C#CC2CC2)s1 (stereo not shown) [Compound 151] | < 0.25 nM
O=C(Nc1nnc(C#CC2CC2)s1)c1cnc(-n2ncccc2=O)cc1-c1cc(C(F)F)ncc1Cl [Compound 463] | < 0.25 nM
COc1ccc(C(F)F)cc1-c1cc(C(=O)N(C)C)ncc1C(=O)Nc1nnc(C#CC2CC2)s1 [Compound 293] | < 0.25 nM
C#C[C@@H]1CC1c1nnc(NC(=O)c2cnc(-c3ccn(C)n3)cc2-c2cc(C(F)F)ncc2OC)s1 (stereo partly shown) [Compound 154] | < 0.25 nM
COc1cnc(C(F)F)cc1-c1cc(-c2cc(C)n(C)n2)ncc1C(=O)Nc1nnc(C#CC2CC2)s1 [Compound 450] | 0.48 nM
COc1cnc(C(F)F)cc1-c1cc(N2CCCC2=O)ncc1C(=O)Nc1nnc(C#CC2CC2)s1 [Compound 285] | 4.3 nM
COc1cnc(Cl)nc1-c1cc(-c2ccn(C)n2)ncc1C(=O)Nc1nnc(C#CC2CC2)s1 [Compound 417] | 3.7 nM
